PubChem BioAssay AID1918991 (Molecular Pharmacology Branch, DTP, NCI, 2023)

System: 186277-243-T-J2-PDC complex spheroid growth
Test: Anticancer human tumor 186277-243-T-J2-PDC patient-derived colon adenocarcinoma cell line growth inhibition [AhR]
Details: for IC50: curve of first compound; for viability, T/C: stronger effect = lower value; active = viability on the fitted dose curve at most 10% of control; inactive = the rest
How it was run: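 Agents were dosed in half-log steps down from roughly clinical Cmax, or from 10 microM where Cmax was unknown, alone and with AhR antagonists. Read-out: percent test/control growth of tumor spheroids containing HUVEC and MSC stromal cells.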

[1] = second compound 0.1 µM, first compound 0.0316 µM
[2] = second compound 0.1 µM, first compound 0.1 µM
[3] = second compound 0.316 µM, first compound 0.0316 µM
[4] = second compound 0.316 µM, first compound 0.1 µM
[5] = second compound 1 µM, first compound 0.0316 µM
[6] = second compound 1 µM, first compound 0.1 µM
[7] = second compound 3.16 µM, first compound 0.0316 µM
[8] = second compound 3.16 µM, first compound 0.1 µM
[9] = second compound 10 µM, first compound 0.0316 µM
[10] = second compound 10 µM, first compound 0.1 µM
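Note: spheroids exposed to compounds for seven days before the viability read.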
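Throughout, for viability, T/C: luminescent signal used as a stand-in for viable cell amount; 100% = DMSO vehicle control wells.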

CC(C)c1c(-c2ccccc2)nc2c(C#N)c[nH]n2c1=O + Cc1cncc(-c2nc(NCCc3c[nH]c4ccccc34)c3ncn(C(C)C)c3n2)c1
> 10000 nM: IC50 (second compound 0.1 µM) | IC50 (second compound 0.316 µM) | IC50 (second compound 1 µM) | IC50 (second compound 3.16 µM)
< 31.6 nM: IC50 (second compound 10 µM)
inactive: viability, T/C [1] 127% | viability, T/C [2] 105% | viability, T/C (second compound 0.1 µM, first compound 0.316 µM) 101% | viability, T/C (second compound 0.1 µM, first compound 1 µM) 98.3% | viability, T/C (second compound 0.1 µM, first compound 3.16 µM) 95.8% | viability, T/C (second compound 0.1 µM, first compound 10 µM) 96.5% | viability, T/C [3] 102% | viability, T/C [4] 99.6% | viability, T/C (second compound 0.316 µM, first compound 0.316 µM) 101% | viability, T/C (second compound 0.316 µM, first compound 1 µM) 98.8% | viability, T/C (second compound 0.316 µM, first compound 3.16 µM) 95% | viability, T/C (second compound 0.316 µM, first compound 10 µM) 108% | viability, T/C [5] 107% | viability, T/C [6] 101% | viability, T/C (second compound 1 µM, first compound 0.316 µM) 98.5% | viability, T/C (second compound 1 µM, first compound 1 µM) 103% | viability, T/C (second compound 1 µM, first compound 3.16 µM) 94.4% | viability, T/C (second compound 1 µM, first compound 10 µM) 102% | viability, T/C [7] 109% | viability, T/C [8] 111% | viability, T/C (second compound 3.16 µM, first compound 0.316 µM) 96.3% | viability, T/C (second compound 3.16 µM, first compound 1 µM) 96.1% | viability, T/C (second compound 3.16 µM, first compound 3.16 µM) 108% | viability, T/C (second compound 3.16 µM, first compound 10 µM) 102% | viability, T/C [9] 26% | viability, T/C [10] 22.7% | viability, T/C (second compound 10 µM, first compound 0.316 µM) 20.5% | viability, T/C (second compound 10 µM, first compound 1 µM) 25.6% | viability, T/C (second compound 10 µM, first compound 3.16 µM) 23.9% | viability, T/C (second compound 10 µM, first compound 10 µM) 34.4%

CC[C@@]1(O)C(=O)OCc2c1cc1n(c2=O)Cc2cc3c(CN(C)C)c(O)ccc3nc2-1 + CC(CO)NC(=O)c1cc(-c2ccc(Cl)cc2)nn(-c2cnn(C)c2)c1=O
14.1 nM: IC50 (second compound 0.1 µM)
15 nM: IC50 (second compound 1 µM)
inactive: viability, T/C (second compound 0.1 µM, first compound 0.000316 µM) 101% | viability, T/C (second compound 0.1 µM, first compound 0.001 µM) 101% | viability, T/C (second compound 0.1 µM, first compound 0.00316 µM) 89.5% | viability, T/C (second compound 0.1 µM, first compound 0.01 µM) 57.3% | viability, T/C [1] 32.2% | viability, T/C [2] 21.5% | viability, T/C (second compound 0.316 µM, first compound 0.000316 µM) 96.5% | viability, T/C (second compound 0.316 µM, first compound 0.001 µM) 102% | viability, T/C (second compound 0.316 µM, first compound 0.00316 µM) 93.5% | viability, T/C (second compound 0.316 µM, first compound 0.01 µM) 59.6% | viability, T/C [3] 30.1% | viability, T/C [4] 22.2% | viability, T/C (second compound 1 µM, first compound 0.000316 µM) 90.4% | viability, T/C (second compound 1 µM, first compound 0.001 µM) 102% | viability, T/C (second compound 1 µM, first compound 0.00316 µM) 91% | viability, T/C (second compound 1 µM, first compound 0.01 µM) 62.2% | viability, T/C [5] 27.6% | viability, T/C [6] 22% | viability, T/C (second compound 3.16 µM, first compound 0.000316 µM) 88.3% | viability, T/C (second compound 3.16 µM, first compound 0.001 µM) 102% | viability, T/C (second compound 3.16 µM, first compound 0.00316 µM) 77.1% | viability, T/C (second compound 3.16 µM, first compound 0.01 µM) 55.5% | viability, T/C [7] 24.7% | viability, T/C [8] 22.7% | viability, T/C (second compound 10 µM, first compound 0.000316 µM) 75% | viability, T/C (second compound 10 µM, first compound 0.001 µM) 75.4% | viability, T/C (second compound 10 µM, first compound 0.00316 µM) 78.3% | viability, T/C (second compound 10 µM, first compound 0.01 µM) 56.2% | viability, T/C [9] 26.5% | viability, T/C [10] 24.1%
14.5 nM: IC50 (second compound 0.316 µM)
11.3 nM: IC50 (second compound 3.16 µM)
12.7 nM: IC50 (second compound 10 µM)

O=C(C=Cn1cnc(-c2cc(C(F)(F)F)cc(C(F)(F)F)c2)n1)NNc1cnccn1 + Cc1cncc(-c2nc(NCCc3c[nH]c4ccccc34)c3ncn(C(C)C)c3n2)c1
inactive: viability, T/C (second compound 0.1 µM, first compound 0.00949 µM) 103% | viability, T/C (second compound 0.1 µM, first compound 0.03 µM) 111% | viability, T/C (second compound 0.1 µM, first compound 0.0949 µM) 114% | viability, T/C (second compound 0.1 µM, first compound 0.3 µM) 67.2% | viability, T/C (second compound 0.1 µM, first compound 0.949 µM) 13.3% | viability, T/C (second compound 0.316 µM, first compound 0.00949 µM) 110% | viability, T/C (second compound 0.316 µM, first compound 0.03 µM) 105% | viability, T/C (second compound 0.316 µM, first compound 0.0949 µM) 124% | viability, T/C (second compound 0.316 µM, first compound 0.3 µM) 73.2% | viability, T/C (second compound 1 µM, first compound 0.00949 µM) 109% | viability, T/C (second compound 1 µM, first compound 0.03 µM) 123% | viability, T/C (second compound 1 µM, first compound 0.0949 µM) 123% | viability, T/C (second compound 1 µM, first compound 0.3 µM) 75.2% | viability, T/C (second compound 1 µM, first compound 0.949 µM) 15.4% | viability, T/C (second compound 3.16 µM, first compound 0.00949 µM) 117% | viability, T/C (second compound 3.16 µM, first compound 0.03 µM) 116% | viability, T/C (second compound 3.16 µM, first compound 0.0949 µM) 127% | viability, T/C (second compound 3.16 µM, first compound 0.3 µM) 60.1% | viability, T/C (second compound 3.16 µM, first compound 0.949 µM) 15.1% | viability, T/C (second compound 3.16 µM, first compound 3 µM) 6.75% | viability, T/C (second compound 10 µM, first compound 0.00949 µM) 67.5% | viability, T/C (second compound 10 µM, first compound 0.03 µM) 60.2% | viability, T/C (second compound 10 µM, first compound 0.0949 µM) 21.6%
active: viability, T/C (second compound 0.1 µM, first compound 3 µM) 4.12% | viability, T/C (second compound 0.316 µM, first compound 0.949 µM) 13.6% | viability, T/C (second compound 0.316 µM, first compound 3 µM) 4.58% | viability, T/C (second compound 1 µM, first compound 3 µM) 5.33% | viability, T/C (second compound 10 µM, first compound 0.3 µM) 7.78% | viability, T/C (second compound 10 µM, first compound 0.949 µM) 3.76% | viability, T/C (second compound 10 µM, first compound 3 µM) 3.02%
430 nM: IC50 (second compound 0.1 µM)
380 nM: IC50 (second compound 3.16 µM)
40.4 nM: IC50 (second compound 10 µM)
456 nM: IC50 (second compound 0.316 µM)
482 nM: IC50 (second compound 1 µM)
